Reference: ChEMBL document CHEMBL1201862, “PubChem BioAssay data set” (2004)
The source made the active and inactive calls.

How the values were obtained:
[1] = target: Polyadenylate-binding protein 1 (Homo sapiens, UniProt P11940); assay: PABP poly(A) RNA binding inhibitors, primary screen, biochemical, fluorescence polarization, uHTS (AID 2014)
[2] = target: Eukaryotic translation initiation factor 4H (Homo sapiens, UniProt Q15056); assay: human eIF4H binding inhibitors, primary screen, translation initiation inhibitor project, biochemical, uHTS, fluorescence polarization (AID 2012)
[3] = target: T1, DNA dC->dU-editing enzyme APOBEC-3G (Homo sapiens, UniProt Q9HC16); assay type: functional
T1 sequence (Q9HC16 whole entry): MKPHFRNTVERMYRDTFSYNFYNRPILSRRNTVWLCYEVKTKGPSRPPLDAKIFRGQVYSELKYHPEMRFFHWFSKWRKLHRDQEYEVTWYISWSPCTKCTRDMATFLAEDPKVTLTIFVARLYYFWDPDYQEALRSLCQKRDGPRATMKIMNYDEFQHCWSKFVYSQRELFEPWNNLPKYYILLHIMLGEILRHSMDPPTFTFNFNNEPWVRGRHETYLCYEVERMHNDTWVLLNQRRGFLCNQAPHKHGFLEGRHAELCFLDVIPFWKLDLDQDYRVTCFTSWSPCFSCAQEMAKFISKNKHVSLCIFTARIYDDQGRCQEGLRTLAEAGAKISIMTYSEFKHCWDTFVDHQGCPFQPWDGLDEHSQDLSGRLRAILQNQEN

[4] = target: T2, DNA dC->dU-editing enzyme APOBEC-3A (Homo sapiens, UniProt P31941); assay: Dose Response confirmation of small molecule APOBEC3A DNA Deaminase Inhibitors via a fluorescence-based single-stranded DNA deaminase assay. [Related pubchem assays (depositor defined):AID493011, AID493024]; assay type: functional
T2 sequence (P31941 whole entry): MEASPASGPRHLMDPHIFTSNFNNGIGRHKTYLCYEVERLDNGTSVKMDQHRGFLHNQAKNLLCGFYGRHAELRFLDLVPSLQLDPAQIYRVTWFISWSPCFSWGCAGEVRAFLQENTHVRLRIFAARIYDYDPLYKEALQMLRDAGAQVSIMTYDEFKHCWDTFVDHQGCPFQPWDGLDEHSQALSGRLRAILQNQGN

[5] = target: Beta-galactosidase (Escherichia coli, UniProt Q8VNN2); assay type: functional
Sequence of Beta-galactosidase (Q8VNN2 whole entry): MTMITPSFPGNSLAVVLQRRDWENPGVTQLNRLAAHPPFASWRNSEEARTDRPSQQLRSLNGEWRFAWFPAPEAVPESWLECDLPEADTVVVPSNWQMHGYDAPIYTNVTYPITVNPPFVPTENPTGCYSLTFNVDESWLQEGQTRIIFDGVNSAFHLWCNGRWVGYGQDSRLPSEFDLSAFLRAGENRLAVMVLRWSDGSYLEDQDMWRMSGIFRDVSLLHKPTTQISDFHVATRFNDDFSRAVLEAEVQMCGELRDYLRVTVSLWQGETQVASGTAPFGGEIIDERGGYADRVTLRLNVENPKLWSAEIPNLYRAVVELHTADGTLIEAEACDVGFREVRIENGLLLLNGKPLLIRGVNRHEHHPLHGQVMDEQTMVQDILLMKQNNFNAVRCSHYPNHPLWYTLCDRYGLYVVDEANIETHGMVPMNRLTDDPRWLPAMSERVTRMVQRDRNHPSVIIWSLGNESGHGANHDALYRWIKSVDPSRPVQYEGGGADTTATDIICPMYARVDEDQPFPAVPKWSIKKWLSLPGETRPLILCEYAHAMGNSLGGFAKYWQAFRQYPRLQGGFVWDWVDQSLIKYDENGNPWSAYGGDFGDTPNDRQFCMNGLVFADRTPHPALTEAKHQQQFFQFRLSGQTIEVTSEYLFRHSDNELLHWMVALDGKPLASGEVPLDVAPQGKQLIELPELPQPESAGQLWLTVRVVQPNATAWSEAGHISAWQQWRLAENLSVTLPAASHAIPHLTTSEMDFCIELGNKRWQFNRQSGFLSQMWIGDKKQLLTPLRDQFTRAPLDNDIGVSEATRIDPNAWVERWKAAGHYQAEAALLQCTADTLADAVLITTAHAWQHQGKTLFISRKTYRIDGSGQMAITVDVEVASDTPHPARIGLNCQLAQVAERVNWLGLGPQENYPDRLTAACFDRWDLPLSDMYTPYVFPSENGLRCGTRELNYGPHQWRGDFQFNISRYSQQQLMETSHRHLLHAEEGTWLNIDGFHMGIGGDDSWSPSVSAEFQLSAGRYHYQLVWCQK

[6] = system: INS1; assay: beta cell apoptosis inhibitors, cytokine rescue, dose response, luminescence, retest (AID 449756); assay type: functional, cell-based; conditions: Rattus norvegicus;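 further: cell death triggered by IL-1 beta plus TNF-alpha plus IFN-gamma mixture; protective hits raise ATP signal compared with cytokine alone wells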
[7] = target: T3, Kappa-type opioid receptor (Homo sapiens, UniProt P41145); assay type: functional
T3 sequence (P41145 whole entry): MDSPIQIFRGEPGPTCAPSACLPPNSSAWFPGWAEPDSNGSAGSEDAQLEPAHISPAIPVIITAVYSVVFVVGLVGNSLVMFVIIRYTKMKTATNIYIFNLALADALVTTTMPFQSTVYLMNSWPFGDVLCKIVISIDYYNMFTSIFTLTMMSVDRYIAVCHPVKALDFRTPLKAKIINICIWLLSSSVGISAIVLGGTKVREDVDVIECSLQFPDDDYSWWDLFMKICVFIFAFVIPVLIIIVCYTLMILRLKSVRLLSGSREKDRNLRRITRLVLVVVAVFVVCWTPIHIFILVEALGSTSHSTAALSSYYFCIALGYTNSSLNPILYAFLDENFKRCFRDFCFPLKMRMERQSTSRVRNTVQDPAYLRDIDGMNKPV

[8] = target: Heat shock protein HSP 90-alpha (Homo sapiens, UniProt P07900); assay type: functional, organism-based
[9] = system: Streptococcus sp. 'group A'; assay: growth inhibition of control SK(-) GAS strain, dose response, counter-screen for streptokinase expression inhibitor project, luminescence, kanamycin, BacTiterGlo, confirmation (AID 1900); assay type: functional, organism-based
[10] = system: Streptococcus; assay: Group A Streptococcus viability loss, dose response, counter-screen for streptokinase expression inhibitor project, luminescence, BacTiterGlo (AID 1915); assay type: functional, organism-based;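 further: potency for reduction of bacterial viability or growth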
[11] = cytotoxicity toward NIH3T3 fibroblasts, dose response, counter-screen, cell-based, ATP luminescence, mouse fibroblasts (AID 2010); assay type: functional;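 further: cells exposed to compound for about 90 hours before reading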
[12] = inhibitors of intracellular T. cruzi replication, confirmation, NIH3T3 host cells, beta-gal luminescence (AID 2044); assay type: functional, cell-based;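 further: intracellular parasites grown in NIH/3T3 mouse fibroblasts as host cells; luminescent beta-galactosidase reporter signal from transgenic T. cruzi replicating inside host cells; inhibitors lower the luminescence signal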
[13] = target: T3, Kappa-type opioid receptor; assay type: functional; remark: listed apart in the source
[14] = target: T4, Streptokinase A (Streptococcus pyogenes serotype M1, UniProt P10520); assay: S. pyogenes streptokinase expression inhibitors, potency, dose response, plasminogen activation absorbance, OD405 (AID 1914); assay type: functional, Streptococcus pyogenes M1 GAS;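 further: secreted streptokinase activity via plasminogen activation per viability signal from cell pellet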
T4 sequence (P10520 whole entry): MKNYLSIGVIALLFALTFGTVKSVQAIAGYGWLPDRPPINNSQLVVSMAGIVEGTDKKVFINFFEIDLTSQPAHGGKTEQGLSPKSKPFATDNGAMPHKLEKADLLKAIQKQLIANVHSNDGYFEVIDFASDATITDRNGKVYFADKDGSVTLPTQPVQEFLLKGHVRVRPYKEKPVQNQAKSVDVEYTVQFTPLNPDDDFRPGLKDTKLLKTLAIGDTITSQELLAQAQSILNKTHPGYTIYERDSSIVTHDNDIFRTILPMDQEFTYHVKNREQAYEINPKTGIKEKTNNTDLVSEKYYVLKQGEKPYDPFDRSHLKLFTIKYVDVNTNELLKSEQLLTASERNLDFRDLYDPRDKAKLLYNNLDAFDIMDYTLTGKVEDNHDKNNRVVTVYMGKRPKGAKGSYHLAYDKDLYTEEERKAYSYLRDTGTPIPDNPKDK

[15] = target: Large T antigen (Simian virus 40, UniProt P03070); assay type: functional, Betapolyomavirus macacae;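 further: Confirmatory-stage PubChem screen for compounds that inhibit SV40 T antigen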
Sequence of Large T antigen (P03070 whole entry): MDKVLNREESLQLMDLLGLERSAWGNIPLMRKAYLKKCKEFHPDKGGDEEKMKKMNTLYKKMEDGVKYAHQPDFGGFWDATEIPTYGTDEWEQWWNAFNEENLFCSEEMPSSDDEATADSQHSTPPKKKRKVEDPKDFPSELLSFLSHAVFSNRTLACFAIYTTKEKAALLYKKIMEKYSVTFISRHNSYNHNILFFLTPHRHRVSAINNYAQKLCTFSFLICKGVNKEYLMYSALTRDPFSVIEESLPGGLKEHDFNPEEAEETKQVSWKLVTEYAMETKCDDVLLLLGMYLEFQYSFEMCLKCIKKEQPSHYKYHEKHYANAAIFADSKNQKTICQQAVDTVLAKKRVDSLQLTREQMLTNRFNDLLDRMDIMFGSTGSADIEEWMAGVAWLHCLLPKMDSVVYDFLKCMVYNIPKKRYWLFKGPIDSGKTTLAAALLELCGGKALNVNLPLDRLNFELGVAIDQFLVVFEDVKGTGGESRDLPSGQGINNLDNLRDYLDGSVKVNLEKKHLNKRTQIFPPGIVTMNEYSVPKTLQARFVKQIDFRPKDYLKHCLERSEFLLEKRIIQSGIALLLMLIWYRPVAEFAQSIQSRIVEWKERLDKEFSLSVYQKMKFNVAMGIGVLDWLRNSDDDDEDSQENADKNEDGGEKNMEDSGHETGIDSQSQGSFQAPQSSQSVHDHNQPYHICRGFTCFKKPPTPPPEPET

[16] = target: Induced myeloid leukemia cell differentiation protein Mcl-1 (Homo sapiens, UniProt Q07820); assay type: functional
Sequence of Induced myeloid leukemia cell differentiation protein Mcl-1 (Q07820 whole entry, the tested form may be a part): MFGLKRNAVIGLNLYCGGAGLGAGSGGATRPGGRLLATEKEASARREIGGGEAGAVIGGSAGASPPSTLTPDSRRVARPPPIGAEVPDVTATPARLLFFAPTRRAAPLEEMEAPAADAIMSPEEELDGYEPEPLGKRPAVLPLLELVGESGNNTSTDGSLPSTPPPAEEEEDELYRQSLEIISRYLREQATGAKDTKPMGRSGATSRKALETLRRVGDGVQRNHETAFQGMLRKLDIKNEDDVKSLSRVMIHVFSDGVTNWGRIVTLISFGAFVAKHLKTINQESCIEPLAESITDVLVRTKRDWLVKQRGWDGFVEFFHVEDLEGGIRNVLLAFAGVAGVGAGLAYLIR

[17] = target: T5, RNA-binding protein pos-1 (Caenorhabditis elegans, UniProt G5EF15); assay: inhibitors of POS-1/mex-3 RNA binding, dose response, biochemical, fluorescence polarization (AID 1964);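 further: purified POS-1 fused to maltose binding protein made in E. coli; potency of compounds blocking POS-1 binding to fluorescent RNA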
T5 sequence (G5EF15 whole entry): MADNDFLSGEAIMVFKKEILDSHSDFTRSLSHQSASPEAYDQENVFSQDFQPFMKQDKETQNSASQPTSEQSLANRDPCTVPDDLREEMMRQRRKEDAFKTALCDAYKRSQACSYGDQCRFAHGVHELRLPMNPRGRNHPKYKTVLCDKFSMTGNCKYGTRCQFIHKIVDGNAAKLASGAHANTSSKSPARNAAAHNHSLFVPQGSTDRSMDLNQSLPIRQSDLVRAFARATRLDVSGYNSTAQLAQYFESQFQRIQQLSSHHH

[18] = target: T6, Aminopeptidase N (Plasmodium falciparum FcB1/Columbia, UniProt O96935); assay: P. falciparum M1AAP inhibitors, biochemical, fluorogenic H-Leu-NHMec substrate, 1536-well (AID 1445); parameters: species or system Plasmodium falciparum 3D7, 3D7
T6 sequence (O96935 whole entry): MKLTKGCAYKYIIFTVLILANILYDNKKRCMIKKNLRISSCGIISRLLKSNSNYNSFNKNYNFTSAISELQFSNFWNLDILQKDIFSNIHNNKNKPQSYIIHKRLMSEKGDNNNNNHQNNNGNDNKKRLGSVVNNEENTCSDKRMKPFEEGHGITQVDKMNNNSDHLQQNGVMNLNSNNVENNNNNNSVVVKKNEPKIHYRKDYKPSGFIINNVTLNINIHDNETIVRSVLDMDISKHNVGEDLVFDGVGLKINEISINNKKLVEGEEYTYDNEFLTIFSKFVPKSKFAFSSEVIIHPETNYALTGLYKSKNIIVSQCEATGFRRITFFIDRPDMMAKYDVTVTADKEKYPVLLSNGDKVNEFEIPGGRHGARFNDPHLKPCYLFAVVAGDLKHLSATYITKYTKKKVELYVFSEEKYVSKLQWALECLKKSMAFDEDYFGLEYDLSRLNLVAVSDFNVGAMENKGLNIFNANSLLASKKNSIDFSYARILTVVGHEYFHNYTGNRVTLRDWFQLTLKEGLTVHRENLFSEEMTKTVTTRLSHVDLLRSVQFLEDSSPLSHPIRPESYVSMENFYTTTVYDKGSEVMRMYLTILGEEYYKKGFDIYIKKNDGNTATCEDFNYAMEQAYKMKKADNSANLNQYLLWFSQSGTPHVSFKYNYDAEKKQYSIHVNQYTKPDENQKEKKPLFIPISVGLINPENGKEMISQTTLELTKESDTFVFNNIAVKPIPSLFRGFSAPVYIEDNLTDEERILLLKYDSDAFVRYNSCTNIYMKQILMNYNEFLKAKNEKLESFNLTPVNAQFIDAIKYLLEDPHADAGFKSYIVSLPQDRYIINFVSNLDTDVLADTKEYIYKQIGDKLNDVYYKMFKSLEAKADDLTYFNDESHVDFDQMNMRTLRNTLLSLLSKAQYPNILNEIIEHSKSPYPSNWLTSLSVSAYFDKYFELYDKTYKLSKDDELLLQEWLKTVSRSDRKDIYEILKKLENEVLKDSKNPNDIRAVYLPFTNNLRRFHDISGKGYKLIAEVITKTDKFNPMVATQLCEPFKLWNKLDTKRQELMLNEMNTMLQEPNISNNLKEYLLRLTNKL

[19] = target: T7, Zinc finger protein mex-5 (Caenorhabditis elegans, UniProt Q9XUB2); assay: MEX-5/TCR-2 RNA interaction inhibitors, dose response, biochemical, C. elegans, fluorescence polarization (AID 1960)
T7 sequence (Q9XUB2 whole entry): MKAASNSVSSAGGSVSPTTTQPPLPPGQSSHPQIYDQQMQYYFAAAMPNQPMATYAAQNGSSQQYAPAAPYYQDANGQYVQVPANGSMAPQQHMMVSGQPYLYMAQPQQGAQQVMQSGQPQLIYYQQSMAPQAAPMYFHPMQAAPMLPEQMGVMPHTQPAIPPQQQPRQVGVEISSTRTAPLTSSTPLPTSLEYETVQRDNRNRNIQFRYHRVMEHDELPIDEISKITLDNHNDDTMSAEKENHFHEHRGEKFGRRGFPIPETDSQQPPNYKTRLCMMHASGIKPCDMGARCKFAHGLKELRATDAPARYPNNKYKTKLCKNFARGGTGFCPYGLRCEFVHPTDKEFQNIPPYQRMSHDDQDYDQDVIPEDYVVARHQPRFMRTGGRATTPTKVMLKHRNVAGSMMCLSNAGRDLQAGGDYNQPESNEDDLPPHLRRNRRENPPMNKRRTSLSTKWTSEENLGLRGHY

[20] = target: T8, Microphthalmia-associated transcription factor (Homo sapiens, UniProt O75030); assay: TRPM1 promoter luciferase signal decrease, dose response, MITF inhibitor project, cell-based, SK-MEL-5, cherry-picked, set 3 (AID 493073); assay type: functional
T8 sequence (O75030 whole entry): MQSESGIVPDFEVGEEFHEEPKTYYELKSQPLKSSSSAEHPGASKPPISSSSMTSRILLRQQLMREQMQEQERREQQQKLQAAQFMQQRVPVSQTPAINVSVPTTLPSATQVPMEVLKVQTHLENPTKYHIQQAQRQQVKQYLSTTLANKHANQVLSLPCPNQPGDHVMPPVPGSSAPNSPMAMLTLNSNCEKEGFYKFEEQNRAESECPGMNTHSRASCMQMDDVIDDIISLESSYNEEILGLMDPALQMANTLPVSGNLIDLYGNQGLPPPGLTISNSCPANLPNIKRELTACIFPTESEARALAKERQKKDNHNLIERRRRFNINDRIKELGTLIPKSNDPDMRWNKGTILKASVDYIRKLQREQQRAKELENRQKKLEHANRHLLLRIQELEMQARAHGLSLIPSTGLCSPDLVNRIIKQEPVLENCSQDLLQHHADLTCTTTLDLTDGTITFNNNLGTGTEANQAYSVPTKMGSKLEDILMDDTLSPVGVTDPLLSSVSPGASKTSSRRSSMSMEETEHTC

[21] = target: Neurotensin receptor type 1 (Homo sapiens, UniProt P30989); assay type: functional;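 further: Image-based confirmatory dose-response assay measuring agonist activity at NTR1; NTR1-expressing U2OS osteosarcoma cells imaged for beta-arrestin GFP spot formation; agonist potency where compounds increase beta-arrestin recruitment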
Sequence of Neurotensin receptor type 1 (P30989 whole entry): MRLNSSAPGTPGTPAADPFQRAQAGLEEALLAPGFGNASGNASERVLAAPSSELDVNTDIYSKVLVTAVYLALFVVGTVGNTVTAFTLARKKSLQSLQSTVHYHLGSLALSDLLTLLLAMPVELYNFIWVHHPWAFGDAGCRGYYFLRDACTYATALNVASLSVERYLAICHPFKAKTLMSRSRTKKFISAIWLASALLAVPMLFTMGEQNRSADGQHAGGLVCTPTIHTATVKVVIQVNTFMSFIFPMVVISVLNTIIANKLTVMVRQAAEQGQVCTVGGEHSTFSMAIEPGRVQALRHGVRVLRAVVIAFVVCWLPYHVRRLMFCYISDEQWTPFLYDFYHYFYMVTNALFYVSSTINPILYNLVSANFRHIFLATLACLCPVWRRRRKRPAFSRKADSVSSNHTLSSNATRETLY

[22] = target: T1, DNA dC->dU-editing enzyme APOBEC-3G; assay: Dose Response confirmation of small molecule APOBEC3G DNA Deaminase Inhibitors via a fluorescence-based single-stranded DNA deaminase assay. [Related pubchem assays (depositor defined):AID493012, AID493028]; assay type: functional
[23] = target: T9, Rac GTPase-activating protein 1 (Homo sapiens, UniProt Q9H0H5); assay: MgcRacGAP GTPase-activating activity inhibitors, confirmation, biochemical, ADP Hunter fluorescence, primary and confirmatory (AID 624330); assay type: functional
T9 sequence (Q9H0H5 whole entry): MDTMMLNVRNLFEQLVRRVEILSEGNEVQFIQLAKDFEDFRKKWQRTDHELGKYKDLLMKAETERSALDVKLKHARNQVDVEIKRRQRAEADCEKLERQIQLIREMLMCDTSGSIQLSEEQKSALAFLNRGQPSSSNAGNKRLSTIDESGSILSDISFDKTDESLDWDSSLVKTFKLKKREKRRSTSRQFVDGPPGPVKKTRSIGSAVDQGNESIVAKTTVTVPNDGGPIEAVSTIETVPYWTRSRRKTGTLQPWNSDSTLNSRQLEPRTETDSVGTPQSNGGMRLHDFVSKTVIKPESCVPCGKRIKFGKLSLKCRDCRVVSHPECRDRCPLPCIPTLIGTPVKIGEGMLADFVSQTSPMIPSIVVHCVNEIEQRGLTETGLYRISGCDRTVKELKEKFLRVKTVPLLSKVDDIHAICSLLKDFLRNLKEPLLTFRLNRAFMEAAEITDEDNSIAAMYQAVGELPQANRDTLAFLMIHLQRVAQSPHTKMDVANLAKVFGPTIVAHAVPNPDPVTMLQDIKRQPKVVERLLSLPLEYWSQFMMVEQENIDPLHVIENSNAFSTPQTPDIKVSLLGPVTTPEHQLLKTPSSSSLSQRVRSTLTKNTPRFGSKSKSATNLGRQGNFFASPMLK

[24] = target: T2, DNA dC->dU-editing enzyme APOBEC-3A; assay: APOBEC3A DNA deaminase inhibitors, dose response, biochemical (AID 504722); assay type: functional
[25] = Vero E6 cell cytotoxicity, dose response, cytotoxicity control for non-replicating M. tuberculosis project, secondary assay (AID 492998); assay type: functional, VeroE6; conditions: Vero C1008
[26] = cells; assay type: functional
[27] = THP-1 cell cytotoxicity, dose response, cytotoxicity control for non-replicating M. tuberculosis project (AID 489025); assay type: functional
[28] = HepG2 cell cytotoxicity, dose response, cytotoxicity control for non-replicating M. tuberculosis project (AID 489018); assay type: functional; conditions: Mycobacterium tuberculosis

Sequence of Polyadenylate-binding protein 1 (P11940 whole entry): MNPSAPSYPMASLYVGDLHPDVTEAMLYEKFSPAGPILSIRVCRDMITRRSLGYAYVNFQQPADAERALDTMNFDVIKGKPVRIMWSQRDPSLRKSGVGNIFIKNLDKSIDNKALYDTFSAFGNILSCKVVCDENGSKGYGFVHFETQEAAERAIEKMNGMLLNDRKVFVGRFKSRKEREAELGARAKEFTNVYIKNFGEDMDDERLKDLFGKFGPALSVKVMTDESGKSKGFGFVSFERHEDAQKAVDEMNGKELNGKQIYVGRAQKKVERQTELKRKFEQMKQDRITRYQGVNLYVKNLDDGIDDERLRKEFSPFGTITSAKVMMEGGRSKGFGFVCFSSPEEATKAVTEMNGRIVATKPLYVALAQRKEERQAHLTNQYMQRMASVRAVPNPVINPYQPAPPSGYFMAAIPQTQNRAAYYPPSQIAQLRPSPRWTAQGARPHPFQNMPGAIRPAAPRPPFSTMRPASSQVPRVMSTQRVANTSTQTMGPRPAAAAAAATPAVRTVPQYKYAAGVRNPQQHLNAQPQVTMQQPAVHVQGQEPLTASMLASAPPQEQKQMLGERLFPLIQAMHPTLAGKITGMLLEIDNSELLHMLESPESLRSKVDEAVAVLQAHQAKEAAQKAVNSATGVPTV

## CCN(CC)C(=O)CC(c1ccc2c(c1)OCO2)c1c(OC)cc(OC)c2ccc(=O)oc12 (stereo not given)
[1]
  IC50: 20.1 µM (active)
[2]
  IC50: 10.3 µM (active)

## C=CCNC(=O)c1ccccc1NC(=O)C1CCN(S(=O)(=O)c2ccc(SC)cc2)CC1
[3]
  IC50: 6.15 µM (active)
[4]
  IC50: 5.28 µM (active)

## Cc1[nH]c(N=Nc2ccccc2)nc1N=Nc1ccccc1
[5]
  EC50: 17.4 µM (active)
[6]
  AC50: 3.72 µM (active)
[7]
  IC50: 8.4 µM (active)
[8]
  AC50: 3.76 µM (active)
[9]
  EC50: 3.49 µM (active)
[10]
  EC50: > 50 µM (not active)
[11]
  EC50: 4.45 µM (active)
[12]
  EC50: 1.12 µM (active)
[13]
  IC50: > 32 µM
[14]
  EC50: 23.4 µM (active)

## Nc1cc(C(=O)O)c(N)c2c1C(=O)c1ccccc1C2=O
[15]
  IC50: 21.9 µM (active)
[16]
  IC50: 3.71 µM (active)
[17]
  EC50: 4.27 µM (active)
[18]
  IC50: 58.9 µM (active)
[19]
  EC50: 2.39 µM (active)

## CCOC(=O)/C=c1\s/c(=C\c2ccc3cc(OC)ccc3c2)c(=O)n1CC(=O)NCC1CCCO1 (stereo not given)
[20]
  AC50: 5.73 µM (active)
[17]
  EC50: 90.4 µM (active)
[19]
  EC50: > 300 µM (not active)
[21]
  EC50: 7.15 µM (active)

## Cc1cccc(-c2nnc(S)n2/N=C/c2ccco2)c1
[22]
  IC50: 2.1 µM (active)
[23]
  IC50: 89.6 µM (active)
[24]
  IC50: > 100 µM (inactive)

## Sc1nnc(-c2ccco2)n1/N=C/c1c(Cl)cccc1Cl
[22]
  IC50: 5.03 µM (active)
[24]
  IC50: > 100 µM (inactive)

## O=C(Cc1cccs1)N/N=C\c1ccc([N+](=O)[O-])s1
[6]
  AC50: 6.28 µM (active)
[25]
  CC50: 11.5 µM (active)
[11]
  EC50: 17.5 µM (active)
[26]
  IC50: 9.65 µM (active)
[12]
  EC50: 0.36 µM (active)
[27]
  CC50: 15.3 µM (active)
[28]
  CC50: 17.7 µM (active)
